In brackets after ≈: the same amount, converted by molar mass. Ends that are not written are not given here.
Tests used:
Test in all cases: microbe, parasite or virus in culture
Type in all cases: cell-based
[1] = system: Staphylococcus aureus (ATCC 25923)
Description: (§1) Minimum inhibition concentrations (MICs) were determined against Escherichia coli (ATCC 25922), Staphylococcus aureus (ATCC 25923), Klebsiella pneumoniae (ATCC 10031) and Pseudomonas aeruginosa (ATCC 27853). Also clinical strains of E. coli, K. pneumoniae, E. cloacae, P. aeruginosa, Serratia marcescens, Proteus mirabilis, S. pneumoniae, Acinetobacter baumannii, A. johnsonii and S. aureus were used for MICs assays. Additionally, clinical strains of yeast including Candida albicans, C. glabrata, C. parapsilosis and C. quillermondiae were used. The susceptibility of these microorganisms to Chain peptides were determined using micro broth dilution assay. Colonies of the respective microorganism from Muller Hinton (MH) agar plates incubated overnight were suspended in MH broth media and final concentration of microorganism was adjusted to 5.0×10^5 cfu/ml. An aliquot of 10 μl of each Chain peptide, or gentamicin, tetracycline as reference antibiotics were added in differing concentrations along with 90 μl of bacterial suspension to 96 well polypropylene plates and incubated at 37° C. for 20 to 24 hours. Concentrations of Chain peptides and reference antibiotics ranged from 0.125 to 128 μg/ml and the MICs were recorded as the lowest concentration with no visual growth of bacteria. Similarly, antifungal MICs were tested in Potato dextrose broth.

[2] = system: Klebsiella pneumoniae (ATCC 10031)
Description: as §1

[3] = system: Escherichia coli (ATCC 25922)
Description: as §1

[4] = system: Pseudomonas aeruginosa (ATCC 27853)
Description: as §1

| Compound | MIC ([1]; Staphylococcus aureus, ATCC25923, read-out: Minimum inhibitory concentration, Staphylococcus aureus (ATCC 25923)) [µg/mL] | MIC ([2]; Klebsiella pneumoniae, ATCC10031, read-out: Minimum inhibitory concentration, Klebsiella pneumoniae (ATCC 10031)) [µg/mL] | MIC ([3]; Escherichia coli, ATCC25922, read-out: Minimum inhibitory concentration, Escherichia coli (ATCC 25922)) [µg/mL] | MIC ([4]; Pseudomonas aeruginosa, ATCC27853, read-out: Minimum inhibitory concentration, Pseudomonas aeruginosa (ATCC 27853)) [µg/mL] | Minimum inhibitory concentration, Staphylococcus aureus (ATCC 25923) [1] [µg/mL] | Minimum inhibitory concentration, Klebsiella pneumoniae (ATCC 10031) [2] [µg/mL] | Minimum inhibitory concentration, Escherichia coli (ATCC 25922) [3] [µg/mL] | Minimum inhibitory concentration, Pseudomonas aeruginosa (ATCC 27853) [4] [µg/mL] |
| --- | --- | --- | --- | --- | --- | --- | --- | --- |
| CN(C)[C@@H]1C(O)=C(C(N)=O)C(=O)[C@@]2(O)C(O)=C3C(=O)c4c(O)cccc4[C@@](C)(O)[C@H]3C[C@@H]12 [Tetracycline, reference compound] | 2 (≈ 4.5 µM) | 2 (≈ 4.5 µM) | 8 (≈ 18 µM) | 32 (≈ 72 µM) | – | – | – | – |
| DCWSAMIRLHAKYNQV [Chain100] | – | – | – | – | >128 | >128 | >128 | >128 |
| IIKRFRLFKKL [Chain301] | – | – | – | – | >128 | >128 | 64 | 64 |
| ILKRWWLFKKL [Chain302] | – | – | – | – | 128 | >128 | >128 | 16 |
| IWKRFRLFKKR [Chain303] | – | – | – | – | >128 | >128 | 64 | >128 |
| IWKRFRLFKKW [Chain304] | – | – | – | – | 32 | 64 | 16 | 8 |
| KIRLHRKRLRK [Chain101] | – | – | – | – | >128 | >128 | >128 | >128 |
| KKRLHRKRLRK [Chain102] | – | – | – | – | >128 | >128 | >128 | >128 |
| KLKKFKLFKKR [Chain312] | – | – | – | – | >128 | >128 | >128 | >128 |
| KLKWFWLFKKR [Chain311] | – | – | – | – | 32 | 32 | 16 | 8 |
| KLRLHAKRLRK [Chain103] | – | – | – | – | >128 | >128 | >128 | >128 |
| KRIVRWRKLKRK [Chain207] | – | – | – | – | >128 | >128 | >128 | >128 |
| KRIVRWRTRKR [Chain205] | – | – | – | – | >128 | >128 | 64 | >128 |
| KRIVRWRWRKR [Chain206] | – | – | – | – | >128 | >128 | 16 | >128 |
| RKIVKKRTFKR [Chain202] | – | – | – | – | >128 | >128 | >128 | 1 |
| RLKRFRLFRKRK [Chain313] | – | – | – | – | >128 | >128 | 32 | 64 |
| RLKWFWLRKLK [Chain305] | – | – | – | – | 64 | 64 | 128 | 16 |
| RRIVKLRWFKR [Chain203] | – | – | – | – | >128 | >128 | 32 | >128 |
| WIRLHWKRLRK [Chain106] | – | – | – | – | >128 | >128 | >128 | 64 |
| WRILRWRKLKR [Chain208] | – | – | – | – | >128 | >128 | 32 | 32 |
| WRIVQWRKLKR [Chain210] | – | – | – | – | >128 | >128 | >128 | >128 |
| WRIVRWRKLKR [Chain209] | – | – | – | – | >128 | >128 | 64 | >128 |
| WRKWFWLFKKR [Chain309] | – | – | – | – | 32 | 64 | 32 | 8 |
| WWRLHAKKKLW [Chain107] | – | – | – | – | >128 | >128 | 64 | >128 |
| WWRLHAKRKLW [Chain108] | – | – | – | – | >128 | >128 | >128 | >128 |
| YDKGFGLFKKM [Chain300] | – | – | – | – | >128 | >128 | >128 | >128 |
